Measurements from patent publication US7897637B2, “Methods of using flavonoids to enhance memory” (The Salk Institute for Biological Studies, priority 2006, dated 2011).
“Also recorded” adds a separate entry of the source.

How the values were obtained:
ERK = ERK activation in primary cortical neuron cultures (immunoblotting); type: cell-based, rat; conditions: 10 μM, 30 minutes to 6 hours
Method: (§1) The average phosphoprotein signal from the blots was quantified by densitometry and normalized to total protein,
(§2) Five (5) day old cortical cultures were next pretreated with 50 μM of the MEK inhibitor, PD98059, before the addition of 10 μM fisetin for 4 hours.
(§3) Primary cultures of rat cortical neurons were prepared as previously described by Li et al. (Neuron, 19:453-63, 1997, herein incorporated by reference as to the method). Analysis of ERK and CREB phosphorylation was performed using SDS-polyacrylamide gel electrophoresis and immunoblotting as previously described by Sagara et al. (J. Neurochem., 90:1144-1155, 2004) using equal amounts of protein from 5 day old cortical cultures. Blots were scanned and quantified using NIH Image. Results were analyzed using an unpaired Student's t-test.

CREB [1] = test: CREB activation in primary cortical neuron cultures (immunoblotting); type: cell-based, rat; conditions: 10 μM, 30 minutes to 6 hours
Method: as §1, §2, §3

[2] = system: CA1 area of rat hippocampal slices; test: Long-term potentiation in CA1 area of hippocampal slices; type: cell-based
Rabbits = test: Small blood clot embolism model of brain ischemia (P50); type: in vivo; conditions: 50 mg/kg intravenously, bolus 5 minutes after embolization; 24 hours post-embolism
Method: Rabbits were embolized with small blood clots of varying size (from about 1 mg to about 4 mg) according to the procedure described by Lapchak et al. (Exp. Neurol., 188.279-285, 2004). […] In some subjects, fisetin treatment (50 mg/kg delivered intravenously) was given as a bolus 5 minutes after embolization. Twenty four (24) hours later, a naïve observer rated each treated or control animal as either behaviorally normal or abnormal. Rabbits judged “abnormal” included those with at least one of the following symptoms: ataxia, leaning, circling, lethargy, nystagmus, loss of balance, loss of sensation and occasionally paraplegia. […] The effective stroke dose or P50 value was then calculated as the amount of microclots (in mg) that produce behavioral impairment in 50% of the animals within a specific treatment group.

C57BL/6 mice = test: MPTP-induced striatal dopamine loss; type: in vivo
Method: C57BL/6 mice from about 11 to 12 week old (20-25 g) were injected with a single dose of […] 1-methyl-4-phenyl-1,2,3,6-tetrahydropyridine (MPTP). MPTP is toxic to dopaminergic neurons in the substantia nigra, and produces many of the symptoms of Parkinson's disease. MPTP-treated mice have long been used as a model of human Parkinson's disease (see, e.g., reviews by Smeyne and Jackson-Lewis, Brain Bes. Mol. Brain Res., 134(1):57-66, 2005; Tetrud and Langston, Acta Neurol. Scand. Suppl., 126:35-40, 1989). After 8 days, the animals were euthanized and the striata dissected and assayed for dopamine content by HPLC combined with electrochemical detection, as previously described (Irwin e/al., Brain Res., 572:224-231, 1992). One group of untreated mice (n=4) and one group of MPTP-treated mice (n=4) received orally administered fisetin (25 mg/kg) beginning one day before treatment groups received MPTP and continuing for the same time period as MPTP treatment in treatment groups. Mice untreated with MPTP or fisetin (control) and mice treated with MPTP alone were also examined.

ERK2 (p42) = ERK2 (p42) phosphorylation in hippocampal slices (immunoblotting, densitometry); type: cell-based, rat; conditions: for p42 phosphoprotein signal normalized to total protein: 1 μM
Method: (§4) Western blots panels A and B) of hippocampal slices treated with (A) 1 μM fisetin or (B) pretreated for 30 minutes with either 50 μM PD98059 (PD) or 10 μM U0126 (U) before the addition of 1 μM fisetin for 5 minutes, which blots were probed with the indicated antibodies.
(§5) Hippocampal slices in artificial cerebral spinal fluid (ACSF) were treated with either 1 μM fisetin for 5-20 minutes or pretreated for 30 minutes with either 50 μM PD98059 (PD) or 10 μM U0126 (J) before the addition of 1 μM fisetin for 5 minutes. Equal amounts of protein were analyzed by SDS-PAGE and immunoblotting with antibodies to phospho-ERK and phospho-CRFB along with antibodies to the unphosphorylated forms of the proteins. The average phosphoprotein signal from the blots was quantified by densitometry and normalized to total protein was plotted±S.D.

ERK1 (p44) = ERK1 (p44) phosphorylation in hippocampal slices (immunoblotting, densitometry); type: cell-based, rat; conditions: for p44 phosphoprotein signal normalized to total protein: 1 μM
Method: as §4, §5

CREB [3] = test: CREB phosphorylation in hippocampal slices (immunoblotting, densitometry); type: cell-based, rat; conditions: for CREB phosphoprotein signal normalized to total protein: 1 μM
Method: as §4, §5

Sprague-Drawley rats = test: Morris water maze (spatial learning and memory); type: in vivo; conditions: 25 mg/kg by gavage
Method: This example describes use of the Morris water maze (MWM) to examine hippocampus-dependent spatial learning and memory in rats. The standard test consists of two parts; a training phase, which measures the ability of the animals to learn where a hidden platform is located within an opaque pool of water and a probe test, which is performed 24 hours after the last training trial and measures the ability of the animals to remember the location of the platform (Vorhees & Williams, Nature Protocols 1.848-58, 2(006))
To test whether oral administration of fisetin could increase spatial learning and/or memory, young male Sprague-Drawley rats (8 weeks old) were administered fisetin by gavage (25 mg/kg) beginning one day before the training phase and continuing throughout the 8 days of training. The rats were given four trials a day for 8 days. Retention of the spatial training was assessed 24 hours after the last training trial. The probe trial consisted of a 60 second free swim in the pool without the platform. Both the training and probe trials were monitored by a video camera mounted above the pool and all data were analyzed by software provided with the video-tracking program.

PC12 cells = conditions: at 10 μM; Sagara et al. 2004; cited from earlier work
protein kinase A = conditions: PC12 cells; Sagara et al. 2004; cited from earlier work
[4] = weak tetanic stimulation 15 pulses at 100 Hz
[5] = hippocampal slices, 1 μM fisetin

O=c1c(O)c(-c2ccc(O)c(O)c2)oc2cc(O)ccc12 [fisetin, 3,3′,4′,7-tetrahydroxyflavone]
ERK activation (ERK): induced ERK activation | CREB activation (CREB [1]): enhanced CREB activation | induction of LTP following weak tetanic stimulation ([2]; 15 pulses at 100 Hz, fisetin 20 minutes prior to, during and after): LTP was induced; also recorded: facilitates the induction of LTP | effect on APV-dependent inhibition of excitatory postsynaptic potentials ([2]; in the presence of APV): no effect | effect on basal synaptic transmission ([2]; no tetanus): no direct effect | maximal effective dose for facilitation of LTP induction [2, 4]: 1 µM | persistence of facilitated LTP [2, 4]: at least 60 minutes | P50 value (mg clot that produce behavioral deficits in 50% of the animals) (Rabbits): 2.18 ± 0.42 mg | striatal dopamine concentration (C57BL/6 mice; MPTP and fisetin 25 mg/kg oral): at least as high as control | striatal dopamine concentration (C57BL/6 mice; fisetin alone 25 mg/kg oral, no MPTP): highest concentrations of striatal dopamine | p42 phosphoprotein signal normalized to total protein (ERK2 (p42); 5 min): 1.68±0.06 | p42 phosphoprotein signal normalized to total protein (ERK2 (p42); 10 min): 1.31±0.05 | p42 phosphoprotein signal normalized to total protein (ERK2 (p42); 20 min): 1.42±0.03 | increase in ERK2 phosphorylation (ERK2 (p42); [5]): 2 fold | p44 phosphoprotein signal normalized to total protein (ERK1 (p44); 5 min): 1.98±0.16 | p44 phosphoprotein signal normalized to total protein (ERK1 (p44); 10 min): 1.48±0.02 | p44 phosphoprotein signal normalized to total protein (ERK1 (p44); 20 min): 1.30±0.09 | increase in ERK 1 phosphorylation (ERK1 (p44); [5]): 2 fold | CREB phosphoprotein signal normalized to total protein (CREB [3]; 5 min): 2.87±0.56 | CREB phosphoprotein signal normalized to total protein (CREB [3]; 10 min): 2.72±0.12 | CREB phosphoprotein signal normalized to total protein (CREB [3]; 20 min): 2.55±0.39 | increase in CREB phosphorylation (CREB [3]; hippocampal slices, fisetin): ~3 fold | effect on swim speed or thigmotaxis (Sprague-Drawley rats): no significant effect | ability of the rats to learn the location of the hidden platform (Sprague-Drawley rats; 8 days of training): no clear effect | probe test: time in the quadrant where the platform had been located (spatial memory) (Sprague-Drawley rats; 24 hours after last training trial, vs vehicle): significantly more time; also recorded: enhances spatial memory | differentiation of the cells induced (PC12 cells): 75-80% | activation of the cAMP target protein kinase A (protein kinase A): does not result in the activation
